Values of other authors, collected in the CATMoS acute toxicity set (Mansouri et al. 2021).

test: rat acute oral toxicity; details: in vivo

Structure (SMILES) | LD50 [mg/kg]
C[C@]12C=CC(=O)C=C1CC[C@@H]1[C@@H]2[C@@H](O)C[C@@]2(C)[C@H]1CC[C@]2(O)C(=O)COC(=O)CCCc1ccc(N(CCCl)CCCl)cc1 | 530
O=C(NC1CCSC1=O)c1cccnc1 (stereo unspecified) | 4500
NS(=O)(=O)c1cc2c(cc1Cl)NC(CC1CCCC1)NS2(=O)=O (stereo unspecified) | 1000
Oc1cc(O)cc(Sc2cc(O)cc(O)c2)c1 | 4290
O=C(Nc1ccc([N+](=O)[O-])cc1)OCc1cccnc1 | 14
O=[N+]([O-])c1ccc2ccccc2c1 | 4400
Cc1cccc(C)c1NC(=O)c1cc(S(N)(=O)=O)c(Cl)cc1O | 1640
CCc1cccc2c3c([nH]c12)C(CC)(CC(=O)O)OCC3 (stereo unspecified) | 94
CNCCc1ccc(OC(=O)C(C)C)c(OC(=O)C(C)C)c1 | 2930
Cn1cc(CCc2cc[n+](CCC[N+](C)(C)C)cc2)c2ccccc21 | 200
c1ccc(CC2=NCCN2)cc1 | 1200
CC(C(=O)O)c1cccc2c(-c3ccccc3)coc12 (stereo unspecified) | 950
O=C1C2=C(CCCC2)C(=O)N1c1ccc(Cl)cc1 | 24000
N=C(N)NCCN1CCCCCCC1 | 1050
CC1=COC(C)(C=O)CC1 (stereo unspecified) | 2460
CCOC(=O)CC(=O)OC(Br)C(Cl)(Cl)Cl (stereo unspecified) | 2600
C/N=N/Nc1ccc(Cl)cc1 | 329
CC(C)N(N=O)C(C)C | 850
COP(=O)(OC)OC(C)=CC(=O)OCc1ccc(Cl)cc1 | 139
C=COC(=O)C=CC | 6500
Brc1nc(Br)c(Br)[nH]1 | 34
CCCCCCCCCCCCCN1CC(C)OC(C)C1 (stereo unspecified) | 650
Nc1cccc(-n2ccccc2=O)c1 | 2300
COP(=S)(OC)Oc1ccc(C#N)cc1C | 500

Structure (SMILES) | LD50 [mg/kg]
CN(C)C(=O)Cl | 1000
CCOP(=S)(CCl)Sc1ccc(C)cc1 (stereo unspecified) | 336
COC(=O)/C(C)=C/OP(=S)(OC)OC | 678
CCOC(C1=NCC(CC)(CC)CN1)c1cccc(Cl)c1 (stereo unspecified) | 110
Cl[Si](Cl)(Cl)c1ccccc1 | 2390
CC(=O)Oc1ccc(C2(c3ccc(OC(C)=O)cc3)C(=O)N(C(C)=O)c3ccccc32)cc1 | 500
CC(C(=O)O)c1ccc2c(c1)CC(C(C)C)C2 (stereo unspecified) | 1500
Nc1ccc(O)c(N)c1 | 240
OC1CC2CC1C1CC3OC3C21 (stereo unspecified) | 3130
O=[N+]([O-])c1cc([N+](=O)[O-])c(Cl)c(S(=O)(=O)O)c1 | 1460
S=c1[nH]c(=S)[nH]c(=S)[nH]1 | 9500
COC12C(COC(N)=O)C3=C(C(=O)C(C)=C(N)C3=O)N1CC1C2N1C (stereo unspecified) | 68
CCOc1ccccc1C(N)=O | 2200
CCCCCCCC[N+](C)(CCCCCCCC)CCCCCCCC | 223
C=CC(=O)OC(C)COCC(C)OC(=O)C=C (stereo unspecified) | 4600
CC(=O)O[C@@H]1C[C@]2(O)[C@H](CC[C@]3(C)[C@@H](c4ccc(=O)oc4)CC[C@@]32O)[C@@]2(C)CC[C@H](O[C@@H]3O[C@H](CO)[C@@H](O)[C@H](O)[C@H]3O)C=C12 | 0.43
CCSC(=O)NCCCN(C)C | 1300
c1ccc2c(c1)CCCC2C1=NCCN1 (stereo unspecified) | 785
CCN(CC)CCSSCCN(CC)CC | 340
CCC(C)c1cc([N+](=O)[O-])cc([N+](=O)[O-])c1OC(=O)SC (stereo unspecified) | 200
CCCCC(CC)OCCOCCO (stereo unspecified) | 2940
CNC(=O)Oc1ccccc1C1CCCC1 | 187
OCCOCCN1CCN(CCOC(c2ccccc2)c2ccc(Cl)cc2)CC1 (stereo unspecified) | 800
O=C1C(=NNc2ccccc2)C(S(=O)(=O)O)=Cc2cc(S(=O)(=O)O)cc(Nc3nc(Cl)nc(Cl)n3)c21 | 7460

Structure (SMILES) | LD50 [mg/kg]
Fc1c(F)c(F)c2[nH]c(C(F)(F)F)nc2c1F | 3.33
CC1(C)[C@H](C=C2CCCC2)[C@H]1C(=O)OCc1coc(Cc2ccccc2)c1 | 63
O=C(CCCN1CCC(O)(c2ccc(Cl)c(C(F)(F)F)c2)CC1)c1ccc(F)cc1 | 195
Clc1ccc(N=Nc2ccc(NCCCN3CCCCC3)c3c2CCCC3)cc1 | 1120
CC1COC2(c3ccccc3Cl)c3cc(Cl)ccc3NC(=O)CN12 (stereo unspecified) | 4500
CNC(=O)N(O)c1ccccc1 | 3400
CNC(=O)Oc1cc(C(C)C)ccc1Cl | 21
CCOC(=O)CCC1(CCC(=O)OCC)c2ccccc2-c2ccccc21 | 6170
CCN(CC)C(C)=O | 1500
CCO[Si](C)(CCCCN)OCC | 6500
COc1ccccc1C1CCN(CCCc2ccc3c(c2)CCC(=O)N3)CC1 | 500
C#CCN1CCC2=C(C1)c1c(O)cc(C(C)C(C)CCCCC)cc1OC2(C)C (stereo unspecified) | 900
CC(=O)C=CC1C(C)C=C(C)CC1C (stereo unspecified) | 5200
Clc1ccc(CCC(Cn2ccnc2)Sc2c(Cl)cccc2Cl)cc1 (stereo unspecified) | 1720
C1CN(CCOCCN2CCOCC2)CCO1 | 2020
CC(O)c1ccccc1 (stereo unspecified) | 400
CNC(=O)ON=C1SCSC1C (stereo unspecified) | 0.88
COc1ccnc(CS(=O)c2nc3cc(OC(F)F)ccc3[nH]2)c1OC (stereo unspecified) | 747
C[C@H](NCCc1ccc(O)cc1)[C@H](O)c1ccc(O)cc1 | 1840
CCCCCCCCCCCCN=C([O-])C[N+](C)(C)Cc1ccccc1 | 100
CCOC(=O)c1nocc1C(=O)c1ccccc1 | 1000
C1CSCCS1 | 2770
C#CCOc1ccc(N)cc1C(=O)NCCCC | 864
